Measurements as given in patent publication US11214835B1, “Methods and compositions for diagnosis and management of neurodegerative diseases” (UNIVERSITY OF SOUTH FLORIDA, priority 2017, dated 2022).

Assays:
[1] = system: C57BL/6 mice; test: Intranasal administration to C57BL/6 mice: brain uptake and toxicity; assay type: in vivo, mouse; conditions: 10 nM in 10 μl
Protocol: Brain tissue was harvested after about 48 h.
Separately, NPG567 or other compounds can be administered by intranasal delivery (APP/PS1 beginning at either 6 months of age (preventive) or 12 months of age (therapeutic); dose repeated alternate days; Tg4510 beginning at either 3 months of age (preventive) or 8 months of age (therapeutic); alternate days. See FIG. 25B for a schematic of the experimental protocol. The treatment efficacy for the two modes of delivery at timeframes as shown in FIGS. 25A and 25B and described herein. Intranasal delivery is a noninvasive method that bypasses the blood-brain barrier and delivers the drug to the brain and the spinal cord, thereby avoiding any systemic side effects. […] Brain tissue was harvested after about 48 h.

[2] = system: neuronal cells; test: WST-1 cellular toxicity assay (Roche); assay type: cell-based
[3] = system: HT22 cells; test: Toxicity of side-chain derivatives to HT22 cells (preliminary data)
[4] = system: GAS5; test: Uptake and GAS5 levels in primary neuronal cells (NC) by qPCR; assay type: cell-based, mouse; conditions: 10 nM
[5] = system: GAS5 transcript; test: RNA-EMSA (REMSA) of compound binding to biotin-labeled GAS5 transcript; conditions: 0.1 nM biotin-labeled GAS5, 10 nM compound, yeast tRNA, 20 min at room temperature
Protocol: RNA-EMSA was performed as previously described (see e.g. Apostolatos, H., Apostolatos, A., Vickers, T., Watson, J. E., Song, S., Vale, F., Cooper, D. R., Sanchez-Ramos, J., and Patel, N. A. (2010) Vitamin A metabolite, all-trans-retinoic acid, mediates alternative splicing of protein kinase C deltaVIII (PKCdeltaVIII) isoform via splicing factor SC35. J Biol Chem 285, 25987-25995 and Patel, R. S., Carter, G., Cooper, D. R., Apostolatos, H., and Patel, N. A. (2014) Transformer 2beta homolog (Drosophila) (TRA2B) regulates protein kinase C deltaI (PKCdeltaI) splice variant expression during 3T3L1 preadipocyte cell cycle. J Biol Chem 289, 31662-31672
Briefly, GAS5 was cloned in TOPO vector which has the T7 promoter. […] 0.1 nM of transcribed, biotin-labeled GAS5 was incubated with 10 nM G5-1397 in presence of 10U yeast tRNA and 10 units of RNase inhibitor in a final volume of 10 μl of RNA shift buffer for 20 min at room temperature and detected using Biotin Chromogenic Detection kit (ThermoFisher). […]
As the compound(s) were designed to bind to GAS5 such that it would disrupt binding to UPF1, the compound(s) ability to bind to GAS5 was examined. […] Next, it was evaluated whether NPG567 could stabilize GAS5 in HT22 cells over-expressing UPF1 (from Addgene). […] GAS5 levels were measured using SYBR Green qPCR. […]

[6] = system: GAS5; test: Binding of side-chain derivatives to GAS5 (preliminary data)
[7] = system: NEAT1, MALAT1; test: Levels of other lncRNAs in neurons by qPCR (specificity); assay type: cell-based, mouse
[8] = system: GAS5; test: GAS5 levels in DM adipocytes by SYBR Green qPCR; assay type: cell-based, human; conditions: 20 nM, 24 hours
Protocol: DM adipocytes were treated with G5-1397 (20 nM) for about 24 hours. GAS5 levels were measured using SYBR Green qPCR.
Depletion of GAS5 decreases glucose uptake: Adipose tissue is the primary target for insulin-mediated glucose uptake. […] To maintain reproducibility over a larger number of experiments, adipose stem cells derived from normal or diabetic patients were purchased from Zenbio (BMI 20-24, Nondiabetic HbA1C 5.9 (hereafter referred as NDM); T2DM HbA1c 8.5 (hereafter referred as DM)). The adipose stem cells (ASC) were differentiated in vitro to mature adipocytes and used in experiments. GAS5 siRNA (10 nM, Ambion 332778, validated; scrambled siRNA as control) was transfected in NDM pre-adipocytes for 48 h, differentiated to mature NDM adipocytes for 8 days and knockdown confirmed by GAS5 SYBR Green qPCR. We determined the effect of GAS5 depletion on glucose uptake by NDM adipocytes. Cells were serum starved, 10 nM insulin was added to cells for 30 minutes and [^3H]-deoxy-2-D-Glucose uptake was measured. Results indicated a decrease in glucose uptake in GAS5 depleted NDM adipocytes ***p<0.001, highly significant using two-tailed students t-test.
Compound NPG5-C86 can increase GAS5 levels in diabetic adipocytes: Next, it was evaluated whether NPG5-C86 could stabilize GAS5 in diabetic adipocytes. […] GAS5 levels were measured using SYBR Green qPCR.

[9] = system: DM adipocytes; test: Cell viability / toxicity in DM adipocytes; assay type: cell-based, human; conditions: 20 nM, 24 hours

Row | Structure (SMILES) | toxicity to the animals ([1]; C57BL/6 mice) | blood-brain barrier crossing and brain uptake ([1]; fluorescein-labeled, 14 week C57BL/6 mice, brain harvested after about 48 h) | cellular toxicity ([2]; WST-1 assay (Roche)) | toxicity to cells ([2]; in neurons) | toxicity to HT22 cells [3] | uptake by NC ([4]; primary neuronal cells) | GAS5 levels in NC ([4]; qPCR, control set as reference) | binding to GAS5 transcript in RNA-EMSA [5] | binding to GAS5 [6] | levels of other lncRNAs NEAT1, MALAT1 present in neurons ([7]; 10 nM, NC) | specificity ([7]; in neurons) | GAS5 levels in DM adipocytes [8] | cell toxicity in DM adipocytes [9]
1 | NCCCC[C@H]1CN(C(=O)CCc2ccccc2)CC(=O)N[C@@H](CCC(=O)O)CN(CC(N)=O)C(=O)CCSCc2ccc(cc2)C(=O)N[C@@H](CCC(=O)O)CN(C(=O)CCC(=O)O)CC(=O)N[C@@H](CCCCN)CN(C(=O)CCCN)CC(=O)N1 [NPG567] | not toxic to the animals | crossed the blood-brain barrier and taken up by the brain | does not cause cellular toxicity | not toxic to cells | not toxic to HT22 cells | efficiently taken up by NC | increase GAS5 | can bind to GAS5 transcript | bound efficiently to GAS5 | did not affect | shows specificity |  | 
2 | CC(C)C[C@H]1CN(C(=O)CC2CC2)CC(=O)N[C@@H](CCCCN)CN(C(=O)CCc2ccccc2)CC(=O)N[C@@H](Cc2ccccc2)CN(CC(N)=O)C(=O)CCSCc2ccc(cc2)C(=O)N[C@@H](Cc2ccccc2)CN(C(=O)CC2CC2)CC(=O)N1 [Formula G5-1397] |  |  |  |  |  |  |  | bound to GAS5 transcript |  |  |  | substantially increases GAS5 levels | without causing cell toxicity
